PubChem BioAssay (NCI)
Several values for one entry are separate records, joined by “and”; a condition that tells them apart may be missing. Identical values can stand only once.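 Growth conditions: 96-well plates. Treatment: test compound, 48 hours, 5 concentrations. Analysis: linear interpolation between bracketing concentrations; unreached endpoints set to highest concentration. At the GI50, growth is halved. TGI: concentration producing complete growth inhibition.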

Columns and labels:
Test in all cases: DTP human tumour cell line panel, 48 h
[1] = tested on: HS 578T breast
[2] = tested on: MALME-3M melanoma
[3] = tested on: NCI-H522 lung
[4] = tested on: M14 melanoma
[5] = tested on: MDA-N
[6] = tested on: MCF7 breast
[7] = tested on: NCI-H460 lung
[8] = tested on: HOP-62 NSCLC
[9] = tested on: CCRF-CEM leukemia
[10] = tested on: A549 NSCLC

Compound | TGI [1] | TGI [2] | TGI [3] | TGI [4] | TGI [5] | TGI [6] [µM] | TGI [7] | TGI [8] | TGI [9] | TGI [10] [µM] | GI50 [2] | GI50 [3] | GI50 [6] | GI50 [9] [µM]
CCc1n[nH]c(=O)n1N1C(=O)C2CC=CCC2C1=O (stereo not drawn) | > 100 µM | > 100 µM | > 100 µM | > 100 µM | > 100 µM | > 100 | > 100 µM | > 100 µM | > 100 µM | > 100 |  |  |  | 
O=C(CN1CCN(C(=O)OCc2ccccc2)CCN(CC(=O)N2CCCCC2)CCN(C(=O)OCc2ccccc2)CC1)N1CCCCC1 | 35.2 µM | 23.5 µM | 19 µM | 25 µM | 29.7 µM | 44.6 | 26.7 µM | 42.2 µM | > 49.8 µM | > 53.5 |  |  |  | 
CC(C)OP(=O)(CN(C)/C(F)=N\C(F)(F)F)OC(C)C | > 100 µM | > 100 µM | > 100 µM | > 100 µM | > 100 µM | > 100 | > 100 µM | > 100 µM | > 100 µM | > 100 |  |  |  | 
COc1cc([C@@H]2c3cc4c(cc3[C@@H](NCCNCCO)[C@H]3COC(=O)[C@H]23)OCO4)cc(OC)c1O | 19.2 µM and 5.4 µM | 24.4 µM and 10.8 µM | > 22 µM and 6.55 µM | 28.1 µM and 20.2 µM | 21.4 µM and 28.8 µM | > 36.7 | 4.49 µM and 3.1 µM | 5.18 µM and 6.52 µM | 0.567 µM and 0.695 µM | > 100 | 2.72 µM and 1.2 µM | 2.22 µM and 1.05 µM | 0.183 µM and 0.0876 µM | 0.123
CC(=O)Nc1ccc(CNc2cc(=O)[nH]c(=O)[nH]2)cc1 | > 100 µM | > 100 µM | > 100 µM | > 100 µM | > 100 µM | > 100 | > 100 µM | > 100 µM | > 100 µM | > 100 |  |  |  | 
CC(NS(C)(=O)=O)c1ccccc1 (stereo not drawn) | > 100 µM | > 100 µM | > 100 µM | > 100 µM | > 100 µM | > 100 | > 100 µM | > 100 µM | > 100 µM | > 100 |  |  |  | 
NC1C/C(=N\O)c2c(I)sc(I)c21 (stereo not drawn) | 48.9 µM | 30.1 µM | 3.7 µM | 30.9 µM | > 54 µM | 36 | 52 µM | 34.4 µM | > 100 µM | 46.4 |  |  |  | 
O=C(c1cc(Cl)cc(Cl)c1)N(C(=S)OC12CC3CC(CC(C3)C1)C2)c1ccccc1 | > 100 µM | > 100 µM | 62.3 µM | 56.7 µM | > 100 µM | > 100 | > 100 µM | > 100 µM | 49.9 µM | > 100 |  |  |  | 
O=C1c2ccccc2CC12Cc1cc3c(cc1C2=O)CCC3 (stereo not drawn) | > 100 µM | > 100 µM | > 100 µM | > 100 µM | > 100 µM | > 100 | > 100 µM | > 100 µM | > 100 µM | > 100 |  |  |  | 
C=C=C(C)[Si](C)(C)C | > 100 µM | > 100 µM | > 100 µM | > 100 µM | > 100 µM | > 100 | > 100 µM | > 100 µM | > 100 µM | > 100 |  |  |  | 
Nc1nc(Cl)cc(NCC2(CO)CCC(Cc3ccccc3)C2)n1 (stereo not drawn) | > 79.9 µM | > 71.9 µM | 49 µM | 46.6 µM | > 91.5 µM | 71 | > 100 µM | > 100 µM | 75.4 µM | > 100 |  |  |  | 
O=C(Cn1nc(Br)c(Br)c1Br)c1ccccc1 | > 100 µM | 72.4 µM | 83.6 µM | 92.1 µM | > 100 µM | 83.6 | 63.9 µM | > 100 µM | 23 µM | 89.7 |  |  |  | 
COC(=O)NCCc1[nH]nc2c1C(=O)C=C(Nc1ccccc1)C2=O | > 100 µM | 25.5 µM | 28.6 µM | > 100 µM | 33.2 µM | 31.2 | > 100 µM | > 100 µM | 51.1 µM | > 100 |  |  |  | 
Cc1cc(N(CCC#N)CCC#N)ccc1/C(N=Nc1cccc([N+](=O)[O-])c1)=N/NC(=O)c1cc(Cl)ccc1O | > 100 µM | > 100 µM | 90.2 µM | > 100 µM | > 100 µM | > 100 | 88.6 µM | > 100 µM | 26.7 µM | > 100 |  |  |  | 
CCCN1C(=O)CCC2=C1CCc1c2ccc(Cl)c1Cl | 22 µM | > 100 µM | 91.4 µM | > 100 µM | > 100 µM | > 100 | > 100 µM | > 100 µM | > 100 µM | > 100 |  |  |  | 
CC(=O)OCC1OC(n2c(N)c(C#N)c(-c3ccccc3)c(C#N)c2=S)C(OC(C)=O)C(OC(C)=O)C1OC(C)=O (stereo not drawn) | 54.1 µM | > 100 µM | > 100 µM | > 100 µM | > 100 µM | > 100 | > 100 µM | 45 µM | > 100 µM | > 100 |  |  |  | 
O=C1C2C=CC1C1C(=O)OC(=O)C21 (stereo not drawn) | > 100 µM | > 100 µM | > 100 µM | > 100 µM | > 100 µM | > 100 | > 100 µM | > 100 µM | > 100 µM | > 100 |  |  |  | 
CC(C)C(C/C=C1/CC(CO)(COC(=O)CC(C(C)C)C(C)C)OC1=O)C(C)C (stereo not drawn) | 2.29 µM | 23.1 µM | 26.5 µM | 26.8 µM | 29.6 µM | 28.4 | 20 µM | 18.3 µM | 29.9 µM | 14.6 |  |  |  | 
Cc1ccc(/C=C/C(=O)c2c([O-])on[n+]2-c2ccccc2)cc1 | > 25.8 µM | 98.3 µM | 8.06 µM | 5.98 µM | > 26.3 µM | 19 | 6.38 µM | 24.9 µM | > 100 µM | 25 |  |  |  | 
CN1C(c2ccccc2)=CC(=O)C(O)=C(c2ccccc2)S1(=O)=O | > 100 µM | > 100 µM | > 100 µM | > 100 µM | > 100 µM | > 100 | > 100 µM | > 100 µM | > 100 µM | > 100 |  |  |  | 
CN1CCC2(CC1)C(=O)N(N1CCCCCC1)C(=O)N2c1ccccc1 | > 100 µM | > 100 µM | > 100 µM | > 100 µM | > 100 µM | > 100 | > 100 µM | > 100 µM | > 100 µM | > 100 |  |  |  | 
CC[N+]1(C)CCC(O)(c2ccc(Cl)cc2)C(C(=O)c2ccc(Cl)cc2)C1 (stereo not drawn) | 38.3 µM | 25.6 µM | 3.51 µM | 36.2 µM | 41.3 µM | 2.71 | 63.8 µM | 46.8 µM | 19.7 µM |  |  |  |  | 
CC(C)CCC1(O)O[C@H]2C[C@H]3[C@@H]4CCC5CC(=O)C=C[C@]5(C)[C@H]4CC[C@]3(C)[C@H]2[C@@H]1C (stereo partly drawn) | 7.31 µM | 29.5 µM | 3.8 µM | 29.8 µM | 27 µM | 20.3 | 22.2 µM | 28.4 µM | 10.3 µM | 28.2 |  |  |  | 
CC(=O)Oc1ccc2c(c1)c1c(=O)oc(N(C)C)nc1n2Cc1ccccc1 | > 100 µM | > 100 µM | > 100 µM | > 100 µM | > 100 µM | > 100 | > 100 µM | > 100 µM | > 100 µM | > 100 |  |  |  | 
NNC(=O)c1c(Cl)c(Cl)c(Cl)c(Cl)c1-c1nc2ccccc2[nH]1 | 86.8 µM | 37.9 µM | > 100 µM | 23.6 µM | 18.9 µM | 23 | 31 µM | 21.4 µM | 54.2 µM | 45.7 |  |  |  | 
CC(=O)C1=C(N=[N+]=[N-])c2cccc3cccc(c23)C1=O | 80.6 µM | 33.5 µM | 29.3 µM | 26.5 µM | 42.7 µM | 64.6 | 56.3 µM | 29.7 µM | 25.6 µM | > 100 |  |  |  | 
O=C(CSc1nc(=O)[nH]c2nc[nH]c12)Nc1ccccc1 | > 100 µM | > 100 µM | > 100 µM | > 100 µM | > 100 µM | > 100 | > 100 µM | > 100 µM | > 100 µM | > 100 |  |  |  | 
COc1ccc(C2SCC(=O)N2c2ccc(-c3ccc(-n4c(-c5ccccc5)nc5ccccc5c4=O)cc3)cc2)cc1 (stereo not drawn) | > 100 µM | > 100 µM | > 100 µM | > 100 µM | > 100 µM | > 100 | > 100 µM | > 100 µM | > 100 µM | > 100 |  |  |  | 
Cc1nc2c(o1)C(=O)c1ccccc1/C2=N/c1ccccn1 | 41.1 µM | 25 µM | 35.9 µM | 33.6 µM | 32.6 µM | 33.9 | 29.8 µM | 37.8 µM | 65.7 µM | > 100 |  |  |  | 
